Target: T1, human toll like receptor 7 (hTLR7) (Homo sapiens, UniProt Q9NYK1)
T1 construct: host or cells: HEK293 (HEK-Blue hTLR7)
T1 sequence (Q9NYK1 27-1049): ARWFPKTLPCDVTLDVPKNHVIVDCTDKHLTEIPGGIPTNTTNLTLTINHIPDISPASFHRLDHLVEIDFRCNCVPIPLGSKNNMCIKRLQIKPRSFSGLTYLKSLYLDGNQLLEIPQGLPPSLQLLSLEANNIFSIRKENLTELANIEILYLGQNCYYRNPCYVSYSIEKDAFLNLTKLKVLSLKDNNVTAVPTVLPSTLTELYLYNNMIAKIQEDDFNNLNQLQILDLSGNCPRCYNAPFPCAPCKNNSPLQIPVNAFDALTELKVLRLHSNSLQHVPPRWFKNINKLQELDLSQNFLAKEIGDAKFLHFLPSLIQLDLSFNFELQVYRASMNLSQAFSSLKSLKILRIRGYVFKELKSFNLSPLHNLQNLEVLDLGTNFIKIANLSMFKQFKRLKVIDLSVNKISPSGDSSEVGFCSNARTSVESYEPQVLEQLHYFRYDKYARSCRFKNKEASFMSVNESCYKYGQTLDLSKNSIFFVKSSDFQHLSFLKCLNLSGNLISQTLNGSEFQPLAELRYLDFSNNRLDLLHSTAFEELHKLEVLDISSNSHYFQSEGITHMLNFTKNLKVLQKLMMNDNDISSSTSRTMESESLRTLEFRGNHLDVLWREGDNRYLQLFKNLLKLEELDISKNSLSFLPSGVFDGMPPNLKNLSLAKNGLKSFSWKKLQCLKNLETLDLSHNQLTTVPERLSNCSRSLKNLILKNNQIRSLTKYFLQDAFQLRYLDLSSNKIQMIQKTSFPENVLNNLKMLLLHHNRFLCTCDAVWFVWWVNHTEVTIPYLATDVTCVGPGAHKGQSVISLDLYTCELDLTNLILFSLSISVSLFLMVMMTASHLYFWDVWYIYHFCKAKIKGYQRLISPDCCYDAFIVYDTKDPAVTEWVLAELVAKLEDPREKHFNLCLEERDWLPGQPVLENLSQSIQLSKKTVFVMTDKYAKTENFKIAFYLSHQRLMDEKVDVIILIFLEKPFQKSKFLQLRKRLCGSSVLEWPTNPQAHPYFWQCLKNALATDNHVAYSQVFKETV
Assay: hTLR7 in-vitro functional assay (HEK-Blue hTLR7 SEAP reporter)
Type: cell-based
Conditions: HEK-Blue hTLR7 cells, overnight incubation

Q: How did the EC50 turn out when `CCCCc1nc2c(N)nc3cc(CCCN4CCN(C(=O)CCOCCOCCOCCOCCOCCOCCOCCOCCOCCOCCOCCOCCOCCOCCOCCOCCOCCOCCOCCOCCOCCOCCOCCOCCNC(=O)CCOCCOCCOCCOCCNC(=O)CCCOc5c(C)c(C)c6c(c5C)CC[C@@](C)(CCC[C@H](C)CCC[C@H](C)CCCC(C)C)O6)CC4)ccc3c2n1CC(C)(CO)CO` [Compound 2, N-{75-[4-(3-{4-amino-2-butyl-1-[3-hydroxy-2-(hydroxymethyl)-2-methylpropyl]-1H-imidazo[4,5-c]quinolin-7-yl}propyl)piperazin-1-yl]-75-oxo-3,6,9,12,15,18,21,24,27,30,33,36,39,42,45,48,51,54,57,60,63,66,69,72-tetracosaoxapentaheptacont-1-yl}-17-oxo-20-({(2R)-2,5,7,8-tetramethyl-2-[(4R,8R)-4,8,12-trimethyltridecyl]-3,4-dihydro-2H-chromen-6-yl}oxy)-4,7,10,13-tetraoxa-16-azaicosan-1-amide] was run?
A: Its EC50 is 355 nM.
